Experimental data from US20130189352A1 (ZHEJIANG UNIVERSITY, priority 2011, published 2013).
Values after ≈ are worked out from the molar mass of the structure shown. Read-outs that look alike come from different tables or passages of the source.

Assays:
[1] = test system: human breast cancer cells (MCF-7); experiment: MTT cytotoxicity test, MCF-7; assay type: cell-based; settings: read-out: IC50 MCF-7
Protocol: (§1) The cells suspension solution was seeded in 96-well plates with 100 μL solution per well containing 5000-10000 cells. […] The drug-loaded liposomes and doxorubicin were separately solved in saline solutions. […] These different formulations were added 25 μl per well in increasing concentrations to the wells of the 96-well plate. The cells were allowed to grow for 24 hours before adding 31.5 μl MTT (5 mg/mL) per well. Finally, about 4 hours later, all of the culture medium was removed and the precipitates were dissolved in 200 μl dimethyl sulfoxide (DMSO). […] The above tests were repeated three times for each group and each concentration has four wells. […] The IC50 values were calculated by IC50.exe software.

[2] = test system: doxorubicin-resistant human breast cancer MCF-7 (MCF-7/ADR); experiment: MTT cytotoxicity test, MCF-7/ADR; assay type: cell-based; settings: NCI/ADR-RES, read-out: IC50 MCF-7/ADR
Protocol: as §1

[3] = test system: human promyelocytic leukemia cells (HL60); experiment: MTT cytotoxicity test, HL60; assay type: cell-based; settings: read-out: IC50 HL60
Protocol: as §1

[4] = test system: doxorubicin-resistance human promyelocytic leukemia cell (HL60/ADR); experiment: MTT cytotoxicity test, HL60/ADR; assay type: cell-based; settings: read-out: IC50 HL60/ADR
Protocol: as §1

[5] = cited from earlier work
[6] = MTT, 24 hours drug exposure, concentrations based on the amount of doxorubicin

SMILES	IC50 ([1]; MCF7, MTT, 24 hours drug exposure, concentrations based on the amount of doxorubicin) [µg/mL]	IC50 [2, 6] [µg/mL]	IC50 ([3]; HL-60, MTT, 24 hours drug exposure, concentrations based on the amount of doxorubicin) [µg/mL]	IC50 [4, 6] [µg/mL]	PKa [5]	IC50 ([1]; MCF7, 24 h) [µg/mL]	IC50 ([2]; 24 h) [µg/mL]	IC50 ([3]; HL-60, 24 h) [µg/mL]	IC50 ([4]; 24 h) [µg/mL]
COc1cccc2c1C(=O)c1c(O)c3c(c(O)c1C2=O)C[C@@](O)(C(=O)CO)C[C@@H]3O[C@H]1C[C@H](N)[C@H](O)[C@H](C)O1 [Control 1, doxorubicin]	0.4 (≈ 0.736 µM)	15.7 (≈ 28.9 µM)	0.4 (≈ 0.736 µM)	13.6 (≈ 25 µM)	4.0	–	–	–	–
CCN(CC)CCCC(C)Nc1ccnc2cc(Cl)ccc12 (stereo not drawn) [Control 2, chloroquine]	–	–	–	–	–	18.1 (≈ 56.6 µM)	23.3 (≈ 72.8 µM)	17.3 (≈ 54.1 µM)	11.2 (≈ 35 µM)
